Where two headings read alike, the source gives them in different places.
Assays:
Human Calpain 2/NS1 = target: T1, Human Calpain 2/NS1 (Homo sapiens, UniProt P17655); assay: Calpain inhibition continuous fluorescence (FRET) assay, Human Calpain 2/NS1; assay type: biochemical; conditions: Column B; read-out: Human Calpain 2/NS1 IC50
T1 sequence (P17655 1-700): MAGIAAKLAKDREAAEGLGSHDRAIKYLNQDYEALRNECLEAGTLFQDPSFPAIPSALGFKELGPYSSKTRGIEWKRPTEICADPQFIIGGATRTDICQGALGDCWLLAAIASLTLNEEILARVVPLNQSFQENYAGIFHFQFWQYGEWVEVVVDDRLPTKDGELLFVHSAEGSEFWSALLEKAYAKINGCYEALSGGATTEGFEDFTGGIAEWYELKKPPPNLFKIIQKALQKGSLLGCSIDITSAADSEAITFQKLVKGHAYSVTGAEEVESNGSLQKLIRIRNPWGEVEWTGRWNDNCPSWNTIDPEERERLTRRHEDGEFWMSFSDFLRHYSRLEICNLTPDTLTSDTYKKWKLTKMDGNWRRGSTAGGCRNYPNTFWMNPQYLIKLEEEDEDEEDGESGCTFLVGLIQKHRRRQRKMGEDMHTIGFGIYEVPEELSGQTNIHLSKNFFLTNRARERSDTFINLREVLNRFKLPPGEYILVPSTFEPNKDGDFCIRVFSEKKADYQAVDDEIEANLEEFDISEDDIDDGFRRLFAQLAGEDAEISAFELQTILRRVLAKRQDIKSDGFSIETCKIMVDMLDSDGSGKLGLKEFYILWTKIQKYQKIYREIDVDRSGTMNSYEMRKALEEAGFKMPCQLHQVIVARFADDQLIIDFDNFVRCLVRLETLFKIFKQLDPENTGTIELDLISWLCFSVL
T1 sequence (P04632 1-268 partner): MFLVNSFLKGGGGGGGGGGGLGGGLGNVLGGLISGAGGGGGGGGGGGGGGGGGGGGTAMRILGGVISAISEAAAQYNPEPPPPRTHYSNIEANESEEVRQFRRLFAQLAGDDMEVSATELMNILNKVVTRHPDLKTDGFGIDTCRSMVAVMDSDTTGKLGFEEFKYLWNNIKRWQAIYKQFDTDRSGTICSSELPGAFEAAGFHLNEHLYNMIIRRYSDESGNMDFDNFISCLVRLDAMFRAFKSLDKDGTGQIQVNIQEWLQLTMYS
Summary of the method: (§1)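 Fluorescence increase from the cleaved 5-FAM/QXL 520 substrate, read at 490/520 nm, gave activity. Calcium was supplied with the substrate to activate the enzyme in situ after a 25C enzyme-inhibitor preincubation, and IC50s were fit from initial slopes.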

Human Calpain 1/NS1 = target: T2, Human Calpain 1/NS1 (Homo sapiens, UniProt P07384); assay: Calpain inhibition continuous fluorescence (FRET) assay, Human Calpain 1/NS1; assay type: biochemical; conditions: Column A; read-out: Human Calpain 1/NS1 IC50
T2 sequence (P07384 1-714): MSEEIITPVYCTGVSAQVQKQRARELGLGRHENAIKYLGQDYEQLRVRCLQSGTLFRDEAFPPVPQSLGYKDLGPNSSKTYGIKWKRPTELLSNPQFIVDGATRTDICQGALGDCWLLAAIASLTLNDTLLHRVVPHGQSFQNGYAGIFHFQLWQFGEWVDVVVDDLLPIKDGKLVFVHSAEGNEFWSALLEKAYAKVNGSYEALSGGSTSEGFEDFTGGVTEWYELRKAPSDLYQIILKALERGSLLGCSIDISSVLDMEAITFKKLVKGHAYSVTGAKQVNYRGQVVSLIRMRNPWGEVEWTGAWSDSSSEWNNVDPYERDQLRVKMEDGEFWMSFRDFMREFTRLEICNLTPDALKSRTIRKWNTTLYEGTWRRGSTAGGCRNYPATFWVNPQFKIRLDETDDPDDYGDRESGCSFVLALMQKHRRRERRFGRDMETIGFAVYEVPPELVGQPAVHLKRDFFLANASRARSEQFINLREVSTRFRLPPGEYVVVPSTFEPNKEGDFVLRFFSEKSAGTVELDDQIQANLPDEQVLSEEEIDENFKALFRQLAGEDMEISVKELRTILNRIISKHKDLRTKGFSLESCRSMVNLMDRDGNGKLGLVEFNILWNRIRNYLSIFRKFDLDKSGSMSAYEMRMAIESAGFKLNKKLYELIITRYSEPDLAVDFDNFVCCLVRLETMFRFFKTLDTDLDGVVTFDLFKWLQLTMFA
T2 sequence (P04632 1-268 partner): T1 sequence (P04632 1-268 partner)
Summary of the method: as §1

[1] = tested on: Calpain activity in SH-SY5Y cells; assay: SH-SY5Y + AMC fluorescence assay (Suc-LLVY-AMC substrate); assay type: cell-based
[2] = tested on: Calpain activity in SH-SY5Y cells (SBDP-150); assay: SH-SY5Y Spectrin western blot assay (SBDP-150 breakdown product, A23187-induced); assay type: cell-based; conditions: Homo sapiens, read-out: SH-SY5Y Spectrin IC50
Human Calpain 9/NS1 = target: T3, Human Calpain 9/NS1 (Homo sapiens, UniProt O14815); assay: Calpain inhibition continuous fluorescence (FRET) assay, Human Calpain 9/NS1; assay type: biochemical; conditions: Column C; read-out: Human Calpain 9/NS1 IC50
T3 sequence (O14815 1-690): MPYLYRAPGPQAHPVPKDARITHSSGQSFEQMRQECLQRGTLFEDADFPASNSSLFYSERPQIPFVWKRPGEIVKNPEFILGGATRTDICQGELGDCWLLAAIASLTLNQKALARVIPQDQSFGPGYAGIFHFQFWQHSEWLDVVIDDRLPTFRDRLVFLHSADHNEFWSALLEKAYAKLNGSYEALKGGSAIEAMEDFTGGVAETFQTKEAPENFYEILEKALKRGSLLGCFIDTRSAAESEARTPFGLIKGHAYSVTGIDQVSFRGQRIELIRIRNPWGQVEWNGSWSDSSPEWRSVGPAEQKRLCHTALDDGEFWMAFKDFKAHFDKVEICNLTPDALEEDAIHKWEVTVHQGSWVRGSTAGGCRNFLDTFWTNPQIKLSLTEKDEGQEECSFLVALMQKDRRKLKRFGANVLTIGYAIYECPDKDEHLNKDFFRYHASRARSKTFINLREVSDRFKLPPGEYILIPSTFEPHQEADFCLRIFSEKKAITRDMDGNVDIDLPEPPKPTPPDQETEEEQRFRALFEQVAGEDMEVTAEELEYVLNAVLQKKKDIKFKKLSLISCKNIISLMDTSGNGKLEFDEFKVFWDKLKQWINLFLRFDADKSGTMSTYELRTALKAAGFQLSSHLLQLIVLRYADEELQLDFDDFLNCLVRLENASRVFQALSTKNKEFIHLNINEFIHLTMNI
T3 sequence (P04632 1-268 partner): T1 sequence (P04632 1-268 partner)
Summary of the method: as §1

[3] = Column E, read-out: SH-SY5Y + AMC IC50
[4] = Column D, SH-SY5Y cells, A23187-induced SBDP-150

IC50 (Human Calpain 2/NS1)	IC50 (Human Calpain 1/NS1)	IC50 (Human Calpain 9/NS1)	IC50 [1, 3]	IC50 [2, 4]	SMILES	IC50 ([1]; read-out: SH-SY5Y + AMC IC50, Column E)	IC50 ([2]; SH-SY5Y)
< 3 µM	< 3 µM	< 3 µM	> 25 µM	10 to 25 µM	NC(=O)C(=O)[C@H](Cc1ccccc1)NC(=O)c1cncn1-c1ccc(-c2ccccc2)nn1 [Compound 200, (S)—N-(4-amino-3,4-dioxo-1-phenylbutan-2-yl)-1-(6-phenylpyridazin-3-yl)-1H-imidazole-5-carboxamide]		
< 3 µM	< 3 µM	< 3 µM	> 25 µM	10 to 25 µM	Cc1cc(C(=O)N[C@@H](Cc2ccccc2)C(=O)C(N)=O)n(-c2ccc(-c3ccccc3C)cc2)n1 [Compound 202, (S)—N-(4-amino-3,4-dioxo-1-phenylbutan-2-yl)-3-methyl-1-(2′-methyl-[1,1′-biphenyl]-4-yl)-1H-pyrazole-5-carboxamide]		
< 3 µM	< 3 µM	< 3 µM	< 10 µM	10 to 25 µM	NC(=O)C(=O)[C@H](Cc1ccccc1)NC(=O)c1sc(C2CC2)nc1-c1ccccc1 [Compound 207, (S)—N-(4-amino-3,4-dioxo-1-phenylbutan-2-yl)-2-cyclopropyl-4-phenylthiazole-5-carboxamide]		
< 3 µM	< 3 µM	< 3 µM	> 25 µM	< 10 µM	Cc1cc(C(=O)N[C@@H](Cc2ccccc2)C(=O)C(N)=O)n(-c2ccc(C#N)cn2)n1 [Compound 208]		
< 3 µM	< 3 µM	< 3 µM	< 10 µM	10 to 25 µM	Cc1cc(C(=O)N[C@@H](Cc2ccccc2)C(=O)C(N)=O)n(-c2ncc(-c3ccccc3)o2)n1 [Compound 212, (S)—N-(4-amino-3,4-dioxo-1-phenylbutan-2-yl)-3-methyl-1-(5-phenyloxazol-2-yl)-1H-pyrazole-5-carboxamide]		
< 3 µM	< 3 µM	< 3 µM	> 25 µM	< 10 µM	Cc1cc(C(=O)N[C@@H](Cc2ccccc2)C(=O)C(N)=O)n(-c2ccc(-c3cccc(F)c3)cc2)n1 [Compound 216, (S)—N-(4-amino-3,4-dioxo-1-phenylbutan-2-yl)-1-(3′-fluoro-[1,1′-biphenyl]-4-yl)-3-methyl-1H-pyrazole-5-carboxamide]		
< 3 µM	< 3 µM	< 3 µM	> 25 µM	< 10 µM	Cc1cc(C(=O)N[C@@H](Cc2ccccc2)C(=O)C(N)=O)n(-c2ccc(-c3ccccc3F)cc2)n1 [Compound 217, (S)—N-(4-amino-3,4-dioxo-1-phenylbutan-2-yl)-1-(2′-fluoro-[1,1′-biphenyl]-4-yl)-3-methyl-1 h-pyrazole-5-carboxamide]		
< 3 µM	< 3 µM	< 3 µM	> 25 µM	10 to 25 µM	Cc1cccc(-c2ccc(-n3nc(C)cc3C(=O)N[C@@H](Cc3ccccc3)C(=O)C(N)=O)cc2)c1 [Compound 218, (S)—N-(4-amino-3,4-dioxo-1-phenylbutan-2-yl)-3-methyl-1-(3′-methyl-[1,1′-biphenyl]-4-yl)-1H-pyrazole-5-carboxamide]		
< 3 µM	< 3 µM	< 3 µM	> 25 µM	10 to 25 µM	Cc1cc(C(=O)N[C@@H](Cc2ccccc2)C(=O)C(N)=O)c(-c2ccccc2)s1 [Compound 222, (S)—N-(4-amino-3,4-dioxo-1-phenylbutan-2-yl)-5-methyl-2-phenylthiophene-3-carboxamide]		
< 3 µM	< 3 µM	< 3 µM	> 25 µM	10 to 25 µM	Cc1cnn(-c2ccccc2)c1C(=O)N[C@@H](Cc1ccccc1)C(=O)C(N)=O [Compound 223, (S)—N-(4-amino-3,4-dioxo-1-phenylbutan-2-yl)-4-methyl-1-phenyl-1H-pyrazole-5-carboxamide]		
< 3 µM	< 3 µM	< 3 µM	< 10 µM	< 10 µM	CCc1nc(-c2ccccc2)c(C(=O)N[C@@H](Cc2ccccc2)C(=O)C(N)=O)o1 [Compound 226, (S)—N-(4-amino-3,4-dioxo-1-phenylbutan-2-yl)-2-ethyl-4-phenyloxazole-5-carboxamide]		
< 3 µM	< 3 µM	< 3 µM	> 25 µM	< 10 µM	CCOCc1ccc(-n2nc(C)cc2C(=O)N[C@@H](Cc2ccccc2)C(=O)C(N)=O)cc1 [Compound 227, (S)—N-(4-amino-3,4-dioxo-1-phenylbutan-2-yl)-1-(4-(ethoxymethyl)phenyl)-3-methyl-1H-pyrazole-5-carboxamide]		
< 3 µM	< 3 µM	< 3 µM	> 25 µM	< 10 µM	Cc1cc(C(=O)N[C@@H](Cc2ccccc2)C(=O)C(N)=O)n(-c2ccc(COCc3ccccc3)cc2)n1 [Compound 228, (S)—N-(4-amino-3,4-dioxo-1-phenylbutan-2-yl)-1-(4-((benzyloxy)methyl)phenyl)-3-methyl-1H-pyrazole-5-carboxamide]		
< 3 µM	< 3 µM	< 3 µM	< 10 µM	< 10 µM	CCOCc1cccc(-n2nc(C)cc2C(=O)N[C@@H](Cc2ccccc2)C(=O)C(N)=O)c1 [Compound 229, (S)—N-(4-amino-3,4-dioxo-1-phenylbutan-2-yl)-1-(3-(ethoxymethyl)phenyl)-3-methyl-1H-pyrazole-5-carboxamide]		

SMILES	IC50 (Human Calpain 2/NS1)	IC50 (Human Calpain 1/NS1)	IC50 (Human Calpain 9/NS1)	IC50 [1, 3]	IC50 [2, 4]	IC50 ([1]; read-out: SH-SY5Y + AMC IC50, Column E)	IC50 ([2]; SH-SY5Y)
Cn1cc(C(=O)NC(Cc2ccccc2)C(=O)C(N)=O)c(-c2cccc(C(F)(F)F)n2)n1 (stereo not drawn) [Compound 198, N-(4-amino-3,4-dioxo-1-phenylbutan-2-yl)-1-methyl-3-(6-(trifluoromethyl)pyridin-2-yl)-1H-pyrazole-4-carboxamide]	< 3 µM	< 3 µM	< 3 µM			> 25 µM	> 25 µM
